33 compounds from patent US8513251B2, “Pyridazinone compounds” (Takeda Pharmaceutical Company Limited, priority 2009, dated 2013) can be followed below.

One may read the inhibition as the drop in the measured response relative to a control, in per cent. What is called IC50 is the concentration that gives 50% inhibition. In general, melting point refers to the temperature of the solid-liquid transition.

Where a name gives a salt, the structure may show the parent alone. Bounds are passed on as bounds.

T1 sequence (Q9Y233 267-1055): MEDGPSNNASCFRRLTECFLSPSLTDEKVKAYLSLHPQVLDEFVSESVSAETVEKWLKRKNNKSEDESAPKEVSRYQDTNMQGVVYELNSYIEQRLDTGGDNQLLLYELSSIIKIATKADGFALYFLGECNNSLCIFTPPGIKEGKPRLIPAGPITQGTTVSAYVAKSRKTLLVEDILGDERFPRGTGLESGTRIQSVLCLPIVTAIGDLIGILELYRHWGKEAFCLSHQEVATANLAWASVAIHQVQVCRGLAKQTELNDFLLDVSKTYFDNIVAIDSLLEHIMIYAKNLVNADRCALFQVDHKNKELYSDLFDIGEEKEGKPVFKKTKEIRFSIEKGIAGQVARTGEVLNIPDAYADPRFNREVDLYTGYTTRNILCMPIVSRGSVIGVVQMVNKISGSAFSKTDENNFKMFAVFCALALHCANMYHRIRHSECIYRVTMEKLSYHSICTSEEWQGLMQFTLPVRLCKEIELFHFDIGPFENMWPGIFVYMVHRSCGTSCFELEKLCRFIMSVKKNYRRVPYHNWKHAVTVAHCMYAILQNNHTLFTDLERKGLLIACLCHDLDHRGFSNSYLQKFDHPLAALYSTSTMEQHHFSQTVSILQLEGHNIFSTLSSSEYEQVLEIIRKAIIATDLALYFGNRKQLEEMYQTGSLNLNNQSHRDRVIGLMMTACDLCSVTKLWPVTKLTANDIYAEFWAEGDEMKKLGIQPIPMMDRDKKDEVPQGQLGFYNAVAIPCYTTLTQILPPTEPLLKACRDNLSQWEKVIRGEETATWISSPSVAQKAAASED

The first data set concerns the target T1, Human PDE10A enzyme (Homo sapiens, UniProt Q9Y233).
T1 construct: Human PDE10A enzyme was generated from Sf9 or COS-7 cells transfected with the full-length gene; His-tag; made in house; host or cells: Sf9 or COS-7 cells
Nature of the data set: PDE enzyme inhibition, SPA (Scintillation Proximity Assay). Type of data set: biochemical. The note with it: Table 2; compound at 0.1 μM; read-out: Percent inhibition (0.1 μM). As for the experimental part: Human PDE10A enzyme was generated from Sf9 or COS-7 cells transfected with the full-length gene. Cloned enzyme was extracted from homogenized cell pellets. The extracted enzyme from Sf9 cells was partially purified using His-tag affinity column. The enzyme was stored at −70° C. until use. PDE activity was measured using a SPA (Scintillation Proximity Assay) (GE Healthcare). To evaluate the inhibitory activity, 10 μL of serial diluted compounds were incubated with 20 μL of PDE enzyme in assay buffer (50 mM HEPES-NaOH, 8.3 mM MgCl2, 1.7 mM EGTA, 0.1% BSA (pH 7.4)) for 30 min. at room temperature. Final concentration of DMSO in the assay was 1 percent as compounds were tested in duplicate in 96-well half-area plates (Corning). To start the reaction, 10 μL of substrate [3H] cGMP (25 or 50 nM; enclosed in SPA kits from GE Healthcare or purchased from PerkinElmer, respectively) was added for a final assay volume of 40 μL. After 60 min incubation at room temperature, yttrium SPA beads containing Zinc sulphate were added (20 μL at 6 mg/mL) to terminate the PDE reaction. After being settled for 60 min., assay plates were counted in a scintillation counter (PerkinElmer) to allow calculation of inhibition rate and IC50. Inhibition rate was calculated on the basis of 0% control wells with DMSO and 100% control wells without enzyme.
Turning to `COc1cc(-n2cccn2)ccc1-n1cc(OC)c(=O)c(-c2ccnn2-c2ccccc2)n1` [Example 192, 5-Methoxy-1-[2-methoxy-4-(1H-pyrazol-1-yl)phenyl]-3-(1-phenyl-1H-pyrazol-5-yl)pyridazin-4(1H)-one], the inhibition at 0.1 µM stood at 101%.

Staying with this data set, now noted: Table 2; human PDE10A, [3H]cGMP substrate.
`COc1cc(-n2cccn2)ccc1-n1cc(OC)c(=O)c(-c2ccnn2-c2ccccc2)n1` [Example 192, 5-Methoxy-1-[2-methoxy-4-(1H-pyrazol-1-yl)phenyl]-3-(1-phenyl-1H-pyrazol-5-yl)pyridazin-4(1H)-one] came in with an IC50 below 10 nM.

System in the next data set: not given
Test: not given
Settings: not given
Regarding `COc1cn(-c2ccc(OS(=O)(=O)C(F)(F)F)cc2F)nc(-c2ccnn2-c2ccccc2)c1=O` (as salt: methanesulfonate) [Example 93, 3-Fluoro-4-[5-methoxy-4-oxo-3-(1-phenyl-1H-pyrazol-5-yl)pyridazin-1(4H)-yl]phenyl trifluoromethanesulfonate], the melting point is 108 to 110 °C.
`Cc1ccc(-n2nccc2-c2nn(-c3cccc(C(F)(F)F)c3)ccc2=O)cc1` [Example 1, 3-[1-(4-Methylphenyl)-1H-pyrazol-5-yl]-1-[3-(trifluoromethyl)phenyl]pyridazin-4(1H)-one]: the melting point was in the range of 164 to 165 °C.
The same measure, in the same setting: the figure for `O=c1ccn(-c2cccc(C(F)(F)F)c2)nc1-c1ccnn1-c1ccc(F)cc1` [Example 2, 3-[1-(4-Fluorophenyl)-1H-pyrazol-5-yl]-1-[3-(trifluoromethyl)phenyl]pyridazin-4(1H)-one] is 130 to 131 °C; for `COc1ccc(-n2nccc2-c2nn(-c3cccc(C(F)(F)F)c3)ccc2=O)cc1` [Example 4, 3-[1-(4-Methoxyphenyl)-1H-pyrazol-5-yl]-1-[3-(trifluoromethyl)phenyl]pyridazin-4(1H)-one] it is 173 to 174 °C; for `Cc1cccc(-n2nccc2-c2nn(-c3cccc(C(F)(F)F)c3)ccc2=O)c1` [Example 5, 3-[1-(3-Methylphenyl)-1H-pyrazol-5-yl]-1-[3-(trifluoromethyl)phenyl]pyridazin-4(1H)-one] it is 142 to 143 °C.
In turn, `O=c1ccn(-c2cccc(C(F)(F)F)c2)nc1-c1ccnn1-c1cccc(F)c1` [Example 6, 3-[1-(3-Fluorophenyl)-1H-pyrazol-5-yl]-1-[3-(trifluoromethyl)phenyl]pyridazin-4(1H)-one] showed a melting point of 104 to 105 °C.
`Cc1ccccc1-n1nccc1-c1nn(-c2cccc(C(F)(F)F)c2)ccc1=O` [Example 7, 3-[1-(2-Methylphenyl)-1H-pyrazol-5-yl]-1-[3-(trifluoromethyl)phenyl]pyridazin-4(1H)-one] showed a melting point of 126 to 127 °C.
The same measure, in the same setting: the result for `O=c1ccn(-c2cccc(C(F)(F)F)c2)nc1-c1ccnn1-c1ccccc1Cl` [Example 8, 3-[1-(2-Chlorophenyl)-1H-pyrazol-5-yl]-1-[3-(trifluoromethyl)phenyl]pyridazin-4(1H)-one] reads 139 to 140 °C; that for `COc1ccccc1-n1nccc1-c1nn(-c2cccc(C(F)(F)F)c2)ccc1=O` [Example 9, 3-[1-(2-Methoxyphenyl)-1H-pyrazol-5-yl]-1-[3-(trifluoromethyl)phenyl]pyridazin-4(1H)-one], 146 to 147 °C.
For `O=c1ccn(-c2ccc(C(F)(F)F)cc2)nc1-c1ccnn1-c1ccccc1` [Example 11, 3-(1-Phenyl-1H-pyrazol-5-yl)-1-[4-(trifluoromethyl)phenyl]pyridazin-4(1H)-one], the melting point is 237 to 238 °C.
The same measure, in the same setting: the figure for `O=c1ccn(-c2cccc(Cl)c2)nc1-c1ccnn1-c1ccccc1` [Example 12, 1-(3-Chlorophenyl)-3-(1-phenyl-1H-pyrazol-5-yl)pyridazin-4(1H)-one] is 146 to 147 °C; for `COc1ccc(-n2ccc(=O)c(-c3ccnn3-c3ccccc3)n2)cc1` [Example 14, 1-(4-Methoxyphenyl)-3-(1-phenyl-1H-pyrazol-5-yl)pyridazin-4(1H)-one] it is 179 to 180 °C.
On the same count and under the same terms, the result for `O=c1ccn(-c2ccc(Cl)cc2)nc1-c1ccnn1-c1ccccc1` [Example 18, 1-(4-Chlorophenyl)-3-(1-phenyl-1H-pyrazol-5-yl)pyridazin-4(1H)-one] reads 219 to 220 °C; that for `Cc1ccccc1-n1ccc(=O)c(-c2ccnn2-c2ccccc2)n1` [Example 19, 1-(2-Methylphenyl)-3-(1-phenyl-1H-pyrazol-5-yl)pyridazin-4(1H)-one], 120 to 121 °C; that for `Cc1cccc(-n2ccc(=O)c(-c3ccnn3-c3ccccc3)n2)c1` [Example 20, 1-(3-Methylphenyl)-3-(1-phenyl-1H-pyrazol-5-yl)pyridazin-4(1H)-one], 115 to 116 °C.
The same measure, in the same setting: the figure for `COc1cccc(-n2ccc(=O)c(-c3ccnn3-c3ccccc3)n2)c1` [Example 21, 1-(3-Methoxyphenyl)-3-(1-phenyl-1H-pyrazol-5-yl)pyridazin-4(1H)-one] is 110 to 111 °C.
Consider `O=c1ccn(-c2ccccc2C(F)(F)F)nc1-c1ccnn1-c1ccccc1` [Example 22, 3-(1-Phenyl-1H-pyrazol-5-yl)-1-[2-(trifluoromethyl)phenyl]pyridazin-4(1H)-one], for which the melting point lay in the range of 145 to 146 °C.
On the same count and under the same terms, the figure for `O=c1ccn(-c2ccccc2)nc1-c1ccnn1-c1ccccc1` [Example 24, 1-Phenyl-3-(1-phenyl-1H-pyrazol-5-yl)pyridazin-4(1H)-one] is 179 to 180 °C; for `Cc1ccc(-n2ccc(=O)c(-c3ccnn3-c3ccccc3)n2)cc1` [Example 25, 1-(4-Methylphenyl)-3-(1-phenyl-1H-pyrazol-5-yl)pyridazin-4(1H)-one] it is 182 to 183 °C; for `O=c1ccn(-c2cccc(OC(F)F)c2)nc1-c1ccnn1-c1ccccc1` [Example 27, 1-[3-(Difluoromethoxy)phenyl]-3-(1-phenyl-1H-pyrazol-5-yl)pyridazin-4(1H)-one] it is 159 to 160 °C.
In turn, `O=c1ccn(-c2ccc(OC(F)F)cc2)nc1-c1ccnn1-c1ccccc1` [Example 28, 1-[4-(Difluoromethoxy)phenyl]-3-(1-phenyl-1H-pyrazol-5-yl)pyridazin-4(1H)-one] showed a melting point of 175 to 176 °C.
Turning to `O=c1ccn(-c2ccccc2N2CCOCC2)nc1-c1ccnn1-c1ccccc1` [Example 29, 1-(2-Morpholin-4-ylphenyl)-3-(1-phenyl-1H-pyrazol-5-yl)pyridazin-4(1H)-one], the melting point lay within 200 to 201 °C.
Still for that read-out and setting: the figure for `O=c1ccn(-c2cccc(C(F)(F)F)c2)nc1-c1nncn1-c1ccccc1` [Example 40, 3-(4-Phenyl-4H-1,2,4-triazol-3-yl)-1-[3-(trifluoromethyl)phenyl]pyridazin-4(1H)-one] is 103 to 104 °C; for `Cc1nnc(-c2nn(-c3cccc(C(F)(F)F)c3)ccc2=O)n1-c1ccccc1` [Example 41, 3-(5-Methyl-4-phenyl-4H-1,2,4-triazol-3-yl)-1-[3-(trifluoromethyl)phenyl]pyridazin-4(1H)-one] it is 191 to 192 °C; for `Cc1cn(-c2cccc(C(F)(F)F)c2)nc(-c2ccnn2-c2ccccc2)c1=O` [Example 50, 5-Methyl-3-(1-phenyl-1H-pyrazol-5-yl)-1-[3-(trifluoromethyl)phenyl]pyridazin-4(1H)-one] it is 147 to 150 °C.
Still for that read-out and setting: the result for `Cc1cc(-c2nn(-c3cccc(C(F)(F)F)c3)ccc2=O)n(-c2ccccc2)n1` [Example 51, 3-(3-Methyl-1-phenyl-1H-pyrazol-5-yl)-1-[3-(trifluoromethyl)phenyl]pyridazin-4(1H)-one] reads 167 to 168 °C.
Same read-out and setting: the figure for `COc1cn(-c2ccc(I)cc2F)nc(-c2ccnn2-c2ccccc2)c1=O` [Example 55, 1-(2-Fluoro-4-iodophenyl)-5-methoxy-3-(1-phenyl-1H-pyrazol-5-yl)pyridazin-4(1H)-one] is 194 to 196 °C; for `COc1cn(-c2ccc(C(F)(F)F)cc2F)nc(-c2ccnn2-c2ccccc2)c1=O` [Example 56, 1-[2-Fluoro-4-(trifluoromethyl)phenyl]-5-methoxy-3-(1-phenyl-1H-pyrazol-5-yl)pyridazin-4(1H)-one] it is 169 to 171 °C; for `O=c1c(O)cn(-c2cccc(C(F)(F)F)c2)nc1-c1ccnn1-c1ccccc1` [Example 58, 5-Hydroxy-3-(1-phenyl-1H-pyrazol-5-yl)-1-[3-(trifluoromethyl)phenyl]pyridazin-4(1H)-one] it is 246 to 248 °C.
`CC(C)Oc1cn(-c2cccc(C(F)(F)F)c2)nc(-c2ccnn2-c2ccccc2)c1=O` [Example 60, 5-(1-Methylethoxy)-3-(1-phenyl-1H-pyrazol-5-yl)-1-[3-(trifluoromethyl)phenyl]pyridazin-4(1H)-one] displayed a melting point of 137 to 139 °C.
Same read-out and setting: the result for `O=c1c(OCC2CC2)cn(-c2cccc(C(F)(F)F)c2)nc1-c1ccnn1-c1ccccc1` [Example 61, 5-(Cyclopropylmethoxy)-3-(1-phenyl-1H-pyrazol-5-yl)-1-[3-(trifluoromethyl)phenyl]pyridazin-4(1H)-one] reads 72 to 78 °C.
The same measure, in the same setting: the result for `COCc1cn(-c2cccc(C(F)(F)F)c2)nc(-c2ccnn2-c2ccccc2)c1=O` [Example 66, 5-(Methoxymethyl)-3-(1-phenyl-1H-Pyrazol-5-yl)-1-[3-(trifluoromethyl)phenyl]pyridazin-4(1H)-one] reads 137 to 139 °C.
